Measurements published in patent US20070043093A1, “Glucagon-like peptide-1 receptor agonists, the preparation and the use of the same” (priority 2003, published 2007).

Columns and labels:
GLP-1R [1] = target: T1, GLP-1R (Rattus norvegicus, UniProt P32301); assay: Determination of the concentration of intracellular cAMP; format: cell-based, human
T1 construct: stably transfected with the expression vector of GLP-1R gene
T1 sequence (P32301 22-463): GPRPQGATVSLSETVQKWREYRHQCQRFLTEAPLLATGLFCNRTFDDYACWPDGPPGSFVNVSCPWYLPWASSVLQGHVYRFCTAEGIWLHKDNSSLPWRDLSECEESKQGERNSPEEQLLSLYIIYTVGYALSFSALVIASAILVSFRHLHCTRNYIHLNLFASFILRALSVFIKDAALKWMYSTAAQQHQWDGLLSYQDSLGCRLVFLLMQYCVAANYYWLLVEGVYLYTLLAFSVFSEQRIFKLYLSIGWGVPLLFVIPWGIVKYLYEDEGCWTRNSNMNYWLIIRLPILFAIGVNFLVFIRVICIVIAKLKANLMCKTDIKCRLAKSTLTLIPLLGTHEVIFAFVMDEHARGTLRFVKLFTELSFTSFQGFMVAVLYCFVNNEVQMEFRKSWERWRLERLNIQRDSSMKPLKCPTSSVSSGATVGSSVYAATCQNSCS
From the text: Since the determination of the concentration of intracellular cAMP indirectly by detecting the expression of the report gene is an indirect process, the functional re-screen is directly performed with the cAMP-detecting kit in order to make sure that the compound can surely increase the concentration of intracellular cAMP.
HEK 293/GLP1R+Luc strain which stably express GLP-1R and luciferase (National new medicaments screening center)
HEK 293 cells are inoculated into 96-well plate in 20000 cells/100 μl/well, are cultured at 37[…] overnight. The compound 2f is diluted to 1.00E-03M, 1.00E-04M, 1.00E-05M, 1.00E-06M and 1.00E-07M with dimethyl sulphoxide, following by being inoculated into the above 96-well plate in […] and being cultured at 37 °C with 5% of CO2 for 1 hour. The concentration of intracellular cAMP is detected according to the specification of cAMP-Screen Direct TM system kit.

GLP-1R [2] = target: T1, GLP-1R; assay: Expression of the luciferase report gene in HEK 293/GLP1R+Luc cells; format: cell-based, human; details: for EC50: luciferase report gene, HEK 293/GLP1R+Luc cells, 6 hours
From the text: Upon that GLP-1R binds to GLP-1 or agonists, its Gasubunit is activated to stimulate the adenylate cyclase, which makes the increase in the concentration of intracellular cAMP. Since the promoter region of the proinsulin gene has the cAMP response element, upon binding of cAMP to this response element, the transcription of the proinsulin gene is activated, so as to increase the sensitivity of -- islet cells to glucose, and improve the expression and secretion of insulin (Diabetes, 2000, vol.49:1156-1164). The screening model employs the human embryonal nephric cell strain which is stably transfected with the expression vector of GLP-1R gene and the expression vector of luciferase report gene under the regulation of cAMP response element, to detect its response to the candidate compound (Cell Biology, 1992, Vol.89: 8641-8645; Proc. Natl. Acad. Sci. U.S.A. 1987, Vol.84: 3434-3438). When screening the candidate compounds, the compound which may induce the luciferase report gene to express have the activity of activating GLP-1.
Cell strain: HEK 293/GLP1R+Luc strain which stably express GLP-1R and luciferase (National New Medicaments Screening Center)
HEK 293/GLP1R+Luc cell in 20000 cells/100 μl/well are inoculated into 96-well plate, are cultured at 37[…] overnight with DMEM culture medium containing 10% of fetal calf serum and 500 μg/mL of G418. The candidate compounds wang516-2, wang502, and wang504 are respectively diluted to 2 mM, 1 mM, 0.3 mM, 0.1 mM, 0.03 mM, […], and 0.003 mM, and the other candidate compounds are diluted gradually from 30 mM for 8 times by a ratio of 1:3 to get a concentration gradient (i.e., 30 mM, 10 mM, 3 mM, 1 mM, 0.3 mM, 0.1 mM, 0.03 mM, and 0.01 mM), following by being added into the above 96-well plate at 1 μl/well. Then, the cells are cultured at 37[…] in 5% of CO2for 6 hours. The activity of luciferase is detected according to the specification of Steady-glo™ luciferase analysis system kit, and counting is performed with Victor 2 counting machine. The positive control adopts 30 nM of standard GLP-1.

GLP-1R [3] = target: T1, GLP-1R; assay: Ligand-binding activity, competition with 125I-labelled GLP-1 on HEK 293/GLP1R+Luc cells; design: species or system human; details: for EC50: competition with 125I-labelled GLP-1 (40 pM), 25 °C, 4 hours; for affinity to GLP-1R (in words): receptor-binding experiment, testing concentration range 0.1 nM to 100,000 nM
Method: In order to determine the binding activity of the compound to the ligand, the cells which highly express GLP-1R are prepared, GLP-1 labelled with ^125I is used as the ligand, while adding into the candidate compound. When the candidate compound binds the ^125I-labelled GLP-1 competitively, the isotope labels on the cell membrane reduce. Accordingly, the affinity of the candidate compound to the ligand can be evaluated (J Mol Endocrinol. 2000 Vol.25:321-35; J Biomol Screen, 2000 Vol. 5:377-84).
20 mM of tris-HCl (pH 7.4) (Shanghai Shenggong biological engineering technology LTD), 100 mM of NaCl (Shanghai Chemical agents Cooperation), 15 mM of NaF (Shanghai Chemical agents Cooperation), 2 mM of deoxypyridoxine (Sigma Cooperation), 0.2 mM of phenylmethylsulfonyl fluoride (Sigma Cooperation), aprotinin (Shanghai Chemical agents Cooperation) (1 μg/ml), and leupeptin (Shanghai Chemical agents Cooperation) (1 μg/ml).
The candidate compound is diluted with dimethyl sulphoxide at the concentration gradient of 0.1 nM, 1 nM, 10 nM, 100 nM, 1000 nM, 10,000 nM, and 100,000 nM.
10^5 HEK 293/GLP1R+Luc cells in the logarithmic growth phase are incubated together with the ^125I-labelled GLP-1 positive peptide (the final concentration of 40 pM) in 200 μl of the testing buffer solution at 25 °C for 4 hours, while adding into the non-labeled positive peptide or the candidate compound. The cells are collected with the cell collector, following by washing three times with the washing solution. The scintillation liquid is added into them, and each well is counted with Microbata counter.

| SMILES | EC50 (GLP-1R [2]) [µM] | EC50 (GLP-1R [3]) [µM] | other results |
| --- | --- | --- | --- |
| CCOc1cc(/C=C2/N=C(c3ccc(NC(C)=O)cc3)OC2=O)ccc1OC(=O)c1cccs1 [2f] | 13 | 31 | effect of high concentration on cells (cAMP decreasing trend) (GLP-1R [1]; 30 μM and 100 μM): cellulotoxic effect; concentration of cAMP with increase of compound concentration (GLP-1R [1]; 293/GLP-1R cells, 1 hour, FIG. 2): exponential increase; affinity to GLP-1R (in words) (GLP-1R [3]): better affinity |
| COc1cc(C=C2N=C(c3ccccc3)OC2=O)ccc1OC(=O)c1cccs1 [wang405] | – | > 100 | – |
| COc1cc(/C=C2/N=C(c3ccc(N)cc3)OC2=O)ccc1OC(=O)c1cccs1 [wang420] | – | > 100 | – |
| COc1cc(C=C2N=C(c3ccc([N+](=O)[O-])cc3)OC2=O)ccc1OC(=O)c1cccs1 [wang450] | – | > 100 | – |
| COc1cc(/C=C2/N=C(c3ccc(NC(C)=O)cc3)OC2=O)ccc1OC(=O)c1cccs1 [wang462] | 11.6 | > 100 | – |
| COc1cc(/C=C2/N=C(c3ccc(NC(=O)C4CC4)cc3)OC2=O)ccc1OC(=O)c1cccs1 [wang488] | 6.73 | – | – |
| COc1cc(/C=C2/N=C(c3ccc(NC(=O)C4CCC4)cc3)OC2=O)ccc1OC(=O)c1cccs1 [wang502] | 3.31 | – | – |
| COc1cc(/C=C2/N=C(c3ccc(NC(=O)C(C)(C)C)cc3)OC2=O)ccc1OC(=O)c1cccs1 [wang504] | 4.87 | – | – |
| COc1cc(C=C2N=C(c3ccc(NC(=O)C4CCCC4)cc3)OC2=O)ccc1OC(=O)c1cccs1 [wang516] | 6.85 | 40 to 80 | affinity to GLP-1R (in words) (GLP-1R [3]): little week |
| COc1cc(/C=C2/N=C(c3ccc(NC(=O)OC(C)(C)C)cc3)OC2=O)ccc1OC(=O)c1cccs1 [wang520] | 4.6 | 60 to 100 | relative activity of luciferase (GLP-1R [2]; final concentration of 30 μM, luciferase activity induced by 30 nM standard GLP-1 regarded as 100%, FIG. 1): 94%; affinity to GLP-1R (in words) (GLP-1R [3]): little week |
| COc1cc(/C=C2/N=C(c3ccc(NC(=O)c4ccccc4)cc3)OC2=O)ccc1OC(=O)c1cccs1 [wang524] | 46.5 | > 100 | – |
| COc1cc(/C=C2/N=C(c3ccc(NC(=O)C(O)c4ccccc4)cc3)OC2=O)ccc1OC(=O)c1cccs1 (stereo not shown) [wang554] | 5.24 | – | – |
| COc1cc(C=C2N=C(c3ccc(NC(=O)Nc4ccc(C5=NC(=Cc6ccc(OC(=O)c7cccs7)c(OC)c6)C(=O)O5)cc4)cc3)OC2=O)ccc1OC(=O)c1cccs1 [wang866] | 54.4 | > 100 | – |
